# Data published in PMC5466683, “Development and Evaluation of ^18F-IRS for Molecular Imaging Mutant EGF Receptors in NSCLC” (Scientific Reports, 2017).
# How the values were obtained:
# [1] = system: NSCLC with responsive EGFR exon 19 deleted; test: PET/CT examination of patients with NSCLC; assay type: in vivo, human
# Description: This study (ClinicalTrials.gov number, NCT03031522) was approved by the Medical Ethics Review Committee of the Fourth Hospital of Harbin Medical University. Subjects signed written informed consent after receiving an explanation of the study. The images provided in this article have been agreed by the subjects. The diagnosis was confirmed by histopathological examination. Three patients confirmed having NSCLC with responsive EGFR exon 19 deleted by histopathology participated in the study from January 2015 to February 2016 (Table 2). ^18F-IRS scans were performed on PET/CT (Discovery 790 Elite; GE healthcare). Approximately 222MBq (6 mCi) of ^18F-IRS was administered intravenously within 5 minutes. Scanning was in initiated 1 hour after administration of ^18F-IRS. Corresponding whole body CT scans for attenuation correction were acquired using a low-dose protocol. Consecutively, PET emission data were acquired in three-dimensional mode with a 200 × 200 matrix with 3 min emission time per bed position. The maximum standard uptake value (SUVmax) normalized to body weight […] was calculated within the region of interest with the following formula: [measured activity concentration (Bq/mL) · body weight (kg)]/injected activity (Bq). Calculation of the radioactivity concentration included the use of a calibration factor that converted the activity counts into becquerels, and the decay correction of the Advantage Workstation 4.6 workstation (GE Healthcare) was […].
# [2] = Biodistribution and clearance in normal organs of tumor-bearing mice; assay type: in vivo, BALB/c nude mice
# Description: (§1) PET/CT imaging of tumor-bearing mice was performed on a clinical time-of-flight (TOF) 64-slice PET/Computed tomography (CT) scanner (Discovery 790 Elite, GE healthcare). The mice bearing tumors (for each group n = 4) were injected with 3.7 MBq (100 μCi) of ^18F-IRS into the tail vein. At 30 min, 60 min and 120 min after injection, the mice were anesthetized with 2% isoflurane and placed near the center of the field of view of the PET/CT scanner in prone position. For blocking studies, gefitinib (100 mg/kg) was injected into HCC827 xenografts nude mice (n = 4) via tail vein 60 min before PET/CT imaging. The mice were imaged as described above 120 min after injection.
# (§2) Biodistribution studies were performed in BALB/c nude mice bearing HCC827, H1975, H358 and H520 xenografts by injecting 3.7MBq of ^18F-IRS into the tail vein (n = 4 per group) and then sacrificing the animals at 30 min, 60 min and 120 min after injection. Tumor and normal tissues were excised and weighed, and the radioactivity was measured using a gamma-counter (Wizard 2, PerkinElmer). All measurements were background-subtracted and decay-corrected to the time of injection and then averaged together. The radioactivity uptake in tumor and normal tissues was expressed as the percentage of the injected dose per gram of organ (% ID/g).
# [3] = system: H358 xenografts; test: Ex vivo biodistribution, tumor uptake; assay type: in vivo, BALB/c nude mice; details: H358 tumors, 120 min after injection
# Description: (§3) All animal studies were conducted in accordance with the China Guidelines for Animal Care and Ethic for Animal Experiments and the experimental protocols were approved by the Animal Use and Care Committee of Harbin Medical University. Female BALB/c nude mice (from the Shanghai Slack Experimental Animal Center of qualified animals SCXK) approximately 4–6 weeks of age and mean weight 20–22 g were used. Approximately 5 × 10^6 of cultured HCC827, H1975, H358 and H520 cells were suspended in PBS/Matrigel (1:1) (BD Bioscience) and subcutaneously implanted in the right shoulders of Female BALB/c nude mice. PET/CT studies were performed when the tumor volume reached 250 mm^3 (4–6 weeks after inoculation).
# as §2
# [4] = system: HCC827 xenografts; test: Ex vivo biodistribution, tumor uptake; assay type: in vivo, BALB/c nude mice
# Description: as §3, §2
# [5] = system: H520 xenografts; test: Ex vivo biodistribution, tumor uptake; assay type: in vivo, BALB/c nude mice; details: H520 tumors, 120 min after injection
# Description: as §3, §2
# [6] = system: HCC827 cells; test: Cellular uptake, efflux and blocking assay; assay type: cell-based, human; details: for cellular uptake: HCC827 cells
# Description: (§4) Cells were trypsinized and seeded overnight in 12-well culture plates at a density of 1 × 10^5 cells per well (1 × 10^5 cells/1.0 mL/well). ^18F-IRS (37 kBq/1.0 mL/well) in 1 ml of serum free 1640 medium was added to each well and incubated at 37 °C for 15 min, 30 min, 60 min and 120 min. Triplicates were carried out for each time point. One milliliter of ice-cold PBS was used to intercept the uptake of tracer. The supernatants were aspirated and the cells were rinsed twice with 1 mL of ice-cold PBS to remove surface-bound radioactive ligand. After washing twice with PBS, the cells were harvested by the addition of 250 μl of 0.1 N NaOH. Efflux assays were performed after 120 min of incubation with ^18F-IRS and then the media was removed and replaced with serum free 1640 medium without ^18F-IRS. At 15 min, 30 min, 60 min and 120 min, the media was removed and the cells washed twice with ice-cold PBS. 200 μl of 0.1 N NaOH were added to […] the cells and then the wells were washed twice with 1 ml of ice-cold PBS. The cell solution and the PBS from each washed well were recovered and counted with CPM in a gamma counter (Wizard 2, PerkinElmer). The results were calculated using the same cellular uptake formula. For blocking experiments, gefitinib (100 μmol/L) was added to HCC827 cells. After 60 min of incubation, the uptake and efflux assays in HCC827 cells were repeated thrice.
# [7] = system: H1975 xenografts; test: In vivo PET/CT imaging of tumor-bearing mice; set-up: species or system BALB/c nude mice; details: H1975 tumors, all time points
# Description: as §3, §1
# (§5) The images were reconstructed using a two-dimensional ordered-subset expectation maximization (OSEM) algorithm. For each scan, regions of interest (ROIs) were drawn over the tumor and major organs using the AW4.6 software (GE Healthcare) on decay-corrected whole-body coronal images. The radioactivity concentrations (accumulations) within the tumor, muscle were obtained from mean pixel values within the multiple ROI volumes and then converted to megabecquerels per milliliter per minute using the calibration factor determined for the PET system. These values were then divided by the administered activity to obtain (assuming a tissue density of 1 g/ml) an image ROI-derived percent injected dose per gram (% ID/g).
# [8] = system: H358 xenografts; test: In vivo PET/CT imaging of tumor-bearing mice; set-up: species or system BALB/c nude mice; details: H358 tumors, all time points
# Description: as §3, §1, §5
# [9] = system: H520 xenografts; test: In vivo PET/CT imaging of tumor-bearing mice; set-up: species or system BALB/c nude mice; details: H520 tumors, all time points
# Description: as §3, §1, §5
# [10] = system: HCC827 xenografts; test: In vivo PET/CT imaging and blocking of tumor-bearing mice; set-up: species or system BALB/c nude mice
# Description: as §3, §1, §5
# [11] = system: H1975 cells; test: Cellular uptake and efflux assay; assay type: cell-based, human; details: 120 min of incubation
# Description: as §4
# [12] = system: H520 cells; test: Cellular uptake and efflux assay; assay type: cell-based, human; details: 120 min of incubation
# Description: as §4
# [13] = system: H358 cells; test: Cellular uptake and efflux assay; assay type: cell-based, human; details: 120 min of incubation
# Description: as §4
# [14] = system: HCC827 cells; test: MTT cell growth inhibition assay; assay type: cell-based; details: Homo sapiens, HCC827 cells (19 exon deleted mutant EGFR), 48 h
# Description: (§6) NSCLC having EGFR with L858R mutation is also respond to EGFR kinase inhibitors. H3255 cells expressing EGFR L858R mutant is sensitive to EGFR kinase inhibitors. In order to measure the sensitivity of five NSCLC cell lines to F-IRS, […] assay was performed. Tumor cells were plated at a density of 2 × 10^3 cells/well into 96-well plates in RPMI 1640 with 10% FBS. Cells were kept in the log phase of proliferative activity. Various concentrations of F-IRS added to each well, and incubation was continued for an additional 48 h. Then, 50 μL of MTT solution (2 mg/mL; Sigma) were added to all wells, and incubation was continued for another 2 h. The media containing MTT solution was removed, and the precipitated material was dissolved by adding 100 μL of DMSO. The absorbance was measured with a microplate reader at test and reference wavelengths of […], respectively. The percentage of growth is shown relative to untreated controls.
# [15] = system: H1975 cells; test: MTT cell growth inhibition assay; assay type: cell-based; details: Homo sapiens, NCI-H1975, H1975 cells (L858R and T790M EGFR mutations), 48 h
# Description: as §6
# [16] = system: H520 cells; test: MTT cell growth inhibition assay; assay type: cell-based; details: Homo sapiens, NCI-H520, H520 cells (negative EGFR), 48 h
# Description: as §6
# [17] = system: H3255 cells; test: MTT cell growth inhibition assay; assay type: cell-based; details: Homo sapiens, NCI-H3255, H3255 cells (EGFR L858R mutant), 48 h
# Description: as §6
# [18] = system: H358 cells; test: MTT cell growth inhibition assay; assay type: cell-based; details: Homo sapiens, NCI-H358, H358 cells (WT EGFR), 48 h
# Description: as §6
# [19] = system: H520 cells; set-up: method as in PMID 21152424; details: H520 (negative EGFR); cited from earlier work
# [20] = system: H358 cell line; set-up: method as in PMID 19826406; details: H358 (EGFR wild type); cited from earlier work
# [21] = system: H1975; set-up: method as in PMID 15767641; details: H1975, L858R and T790M secondary mutation; cited from earlier work
# [22] = Mean ± SD of three patients, 60 min after injection
# [23] = patient 1, 60 min after injection
# [24] = patient 2, 60 min after injection
# [25] = patient 3, 60 min after injection
# [26] = HCC827 tumors, 120 min after i.v. injection of 3.7 MBq
smiles,measurement,setting,value
Fc1ccc(Nc2ncnc3cc(OCCOCCOCCOCC[18F])c(OCCCN4CCOCC4)cc23)cc1Cl [^18F-IRS],SUVmax Bladder,[1]; [22],5.11 ± 3.02
same,SUVmax Brain,[1]; [22],0.43 ± 0.29
same,SUVmax Kidneys,[1]; [22],13.13 ± 0.31
same,SUVmax Liver,[1]; [22],10.48 ± 0.44
same,SUVmax Lungs,[1]; [22],0.82 ± 0.23
same,SUVmax Muscles,[1]; [22],0.65 ± 0.14
same,SUVmax Small intestines,[1]; [22],8.05 ± 1.67
same,SUVmax Tumor,[1]; [22],2.44 ± 0.49
same,SUVmax Bladder,[1]; [23],8.51
same,SUVmax Brain,[1]; [23],0.19
same,SUVmax Kidneys,[1]; [23],12.96
same,SUVmax Liver,[1]; [23],10.52
same,SUVmax Lungs,[1]; [23],0.58
same,SUVmax Muscles,[1]; [23],0.73
same,SUVmax Small intestines,[1]; [23],7.17
same,SUVmax Tumor,[1]; [23],2.19
same,SUVmax Bladder,[1]; [24],4.11
same,SUVmax Brain,[1]; [24],0.76
same,SUVmax Kidneys,[1]; [24],13.49
same,SUVmax Liver,[1]; [24],10.9
same,SUVmax Lungs,[1]; [24],1.04
same,SUVmax Muscles,[1]; [24],0.75
same,SUVmax Small intestines,[1]; [24],9.99
same,SUVmax Tumor,[1]; [24],2.12
same,SUVmax Bladder,[1]; [25],2.72
same,SUVmax Brain,[1]; [25],0.34
same,SUVmax Kidneys,[1]; [25],12.95
same,SUVmax Liver,[1]; [25],10.02
same,SUVmax Lungs,[1]; [25],0.85
same,SUVmax Muscles,[1]; [25],0.49
same,SUVmax Small intestines,[1]; [25],7.01
same,SUVmax Tumor,[1]; [25],3.01
same,main route of elimination,[1]; patients with NSCLC,"urinary tract, followed by the hepatobiliary"
same,"changes in heart rates, respiration rates, and blood pressure","[1]; patients with NSCLC, after i.v. injection",no significant changes
same,route of elimination,"[2]; mice, PET/CT imaging and biodistribution",mainly eliminated through renal clearance
same,uptake in all other organs and blood,"[2]; tumor-bearing nude mice, except kidneys, intestine and gallbladder",very low
same,tumor uptake (ex vivo biodistribution),[3],1.68 ± 0.29 % ID/g
same,tumor uptake (ex vivo biodistribution),[4]; [26],4.27 ± 0.15 % ID/g
same,tumor uptake (ex vivo biodistribution) after blocking,"[4]; HCC827 xenografts blocked by gefitinib 100 mg/kg, 120 min",1.12 ± 0.21 ID/g
same,tumor uptake (ex vivo biodistribution),[5],1.62 ± 0.08 % ID/g
same,cellular uptake after blocking,"[6]; HCC827 cells treated with 100 μmol/L gefitinib, 120 min of incubation",0.89 ± 0.12%
same,cellular uptake,[6]; 15 min of incubation,7.51 ± 1.05%
same,cellular uptake,[6]; 30 min of incubation,10.03 ± 0.47%
same,cellular uptake,[6]; 120 min of incubation,14.07 ± 0.98%
same,tumor uptake on PET/CT images,[7],unobviously detectable
same,tumor uptake on PET/CT images,[8],unobviously detectable
same,tumor uptake on PET/CT images,[9],unobviously detectable
same,accumulation in tumors on PET/CT images,[10]; [26],significantly high accumulation
same,tumor/muscle ratio (PET quantification),"[10]; HCC827 vs H1975, H358 and H520 xenografts, 120 min, P < 0.01",significantly higher
same,tumor uptake on PET/CT after blocking,"[10]; HCC827 xenografts, gefitinib 100 mg/kg before imaging, 120 min",blocked by gefitinib
same,cellular uptake,[11],1.49 ± 0.05%
same,cellular uptake,[12],2.31 ± 0.36%
same,cellular uptake,[13],1.82 ± 0.19%
FCCOCCOCCOCCOc1cc2ncnc(Nc3ccc(F)c(Cl)c3)c2cc1OCCCN1CCOCC1 [F-IRS],IC50,[14],5.6 ± 0.2 nM
same,IC50,[15],2270 ± 1170 nM
same,IC50,[16],18400 ± 2210 nM
same,IC50,[17],13.1 ± 4.4 nM
same,IC50,[18],7050 ± 2300 nM
COc1cc2ncnc(Nc3ccc(F)c(Cl)c3)c2cc1OCCCN1CCOCC1 [gefitinib],sensitivity of cell line,[19],do not respond
same,sensitivity of cell line,[20],less sensitive
same,sensitivity of cell line,[21],conferring resistance
